Key:
Human Kv1.5 channels = target: T1, Human Kv1.5 channels (Homo sapiens, UniProt P22460); test: Inhibition of human Kv1.5 current expressed in Xenopus oocytes (two microelectrode voltage clamp); assay type: cell-based; settings: human Kv1.5 expressed in Xenopus oocytes; voltage jumps to 0 mV and 40 mV, 500 ms; RT; pH 7.4; Hill equation
T1 construct: expressed in transfected cells; host or cells: Xenopus laevis oocytes injected with Kv1.5-coding RNA synthesized in vitro
Description: Human Kv1.5 channels were expressed in Xenopus oocytes. For this purpose, oocytes were first isolated from Xenopus laevis and were defolliculated. Kv1.5-coding RNA synthesized in vitro was then injected into these oocytes. After Kv1.5 protein expression for 1-7 days, Kv1.5 currents were measured on the oocytes by the two microelectrode voltage clamp technique. Here, the Kv1.5 channels were activated as a rule with voltage jumps to 0 mV and 40 mV, lasting for 500 ms. The bath was flushed with a solution of the following composition: 96 mM NACl, 2 mM KCl, 1.8 mM CaCl2, 1 mM MgCl2, and 5 mM HEPES (tritrated with NaOH to pH 7.4). These experiments were carried out at RT. The following were used for data acquisition and analysis: Geneclamp amplifier (Axon Instruments, Foster City, USA) and MacLab D/A converter and software (ADinstruments, Castle Hill, Australia). The substances according to the invention were tested by adding them in different concentrations to the bath solution. The effects of the substances were calculated as percentage inhibition of the Kv1.5 control current obtained when no substance was added to the solution. The data were then extrapolated using the Hill equation, in order to determine the inhibitory concentration (IC50) for the respective substances.

[1] = tested on: fast-activating potassium channel IKr; settings: human ventricle and atrium cells; cited from earlier work
Kv1.5 channel = settings: described in the literature, side effect alongside other principal effects; cited from earlier work

T1 sequence (P22460 whole entry): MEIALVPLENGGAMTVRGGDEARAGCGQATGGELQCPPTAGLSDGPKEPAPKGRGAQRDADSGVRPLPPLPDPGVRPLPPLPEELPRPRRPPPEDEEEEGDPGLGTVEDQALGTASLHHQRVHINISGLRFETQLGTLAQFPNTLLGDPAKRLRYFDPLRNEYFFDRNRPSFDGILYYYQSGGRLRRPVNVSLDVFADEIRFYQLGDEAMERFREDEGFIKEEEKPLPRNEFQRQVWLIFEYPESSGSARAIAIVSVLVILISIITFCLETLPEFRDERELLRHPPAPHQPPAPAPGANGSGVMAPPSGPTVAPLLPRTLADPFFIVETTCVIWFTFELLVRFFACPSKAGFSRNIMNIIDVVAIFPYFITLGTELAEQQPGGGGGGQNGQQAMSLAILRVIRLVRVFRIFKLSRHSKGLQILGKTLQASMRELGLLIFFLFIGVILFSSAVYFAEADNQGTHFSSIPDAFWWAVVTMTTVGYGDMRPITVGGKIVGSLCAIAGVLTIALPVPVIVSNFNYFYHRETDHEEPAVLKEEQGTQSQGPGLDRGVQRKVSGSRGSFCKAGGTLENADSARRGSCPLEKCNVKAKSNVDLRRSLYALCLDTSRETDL

| Structure (SMILES) | IC50 (Human Kv1.5 channels) | other results |
| --- | --- | --- |
| CC(C)CCNS(=O)(=O)c1cc(C(=O)N[C@@H]2CCc3ccccc32)c(Cl)cc1Cl [Example 19] | ~3 µM |  |
| O=C(NC1CCc2ccccc21)c1cc(S(=O)(=O)NC2CCC2)c(Cl)cc1Cl (centres unmarked) [Example 14] | 4.2 µM |  |
| O=C(NC1CCc2ccccc21)c1cc(S(=O)(=O)NC2CCCCC2)c(Cl)cc1Cl (centres unmarked) [Example 13] | 3.9 µM |  |
| COc1ccc(NS(=O)(=O)c2cc(C(=O)NC3CCc4ccccc43)c(Cl)cc2F)cc1 (centres unmarked) [Example 90] | 2.8 µM |  |
| NS(=O)(=O)c1cc(C(=O)NC2CCc3ccccc32)ccc1Cl (centres unmarked) [Example 1] | > 10 µM |  |
| COc1cc2c(cc1OC)C(NC(=O)c1ccc(Cl)c(S(=O)(=O)NCCC(C)C)c1)CC2 (centres unmarked) [Example 89] | 5.6 µM |  |
| CC(C)NC[C@@H](O)c1ccc(NS(C)(=O)=O)cc1 [d-Sotalol] |  | block of IKr (in words) [1]: predominantly or exclusively block the fast-activating potassium channel IKr |
| CN(C(=O)c1cc(S(=O)(=O)NC2CCCCC2)ccc1Cl)C1CCc2ccccc21 (centres unmarked) [Example 94] | 2.2 µM |  |
| CC(C)CCNS(=O)(=O)c1cc(C(=O)N[C@H]2CCc3ccccc32)c(Cl)cc1Cl [Example 20] | ~3 µM |  |
| CN(CCOc1ccc(NS(C)(=O)=O)cc1)CCc1ccc(NS(C)(=O)=O)cc1 [Dofetilide] |  | block of IKr (in words) [1]: predominantly or exclusively block the fast-activating potassium channel IKr |
| CC(C)CCNS(=O)(=O)c1cc(C(=O)NC2CCc3ccccc32)c(Cl)cc1Cl (centres unmarked) [Example 11] | 2.8 µM |  |
| Cc1cc(C)c(S(=O)(=O)NCCC(C)C)cc1C(=O)NC1CCc2ccccc21 (centres unmarked) [Example 57] | 8.8 µM |  |
| O=C1NCCN1CCN1CCC(c2cn(-c3ccc(F)cc3)c3ccc(Cl)cc23)CC1 [Sertindole] |  | blocking effect on the Kv1.5 channel (in words) (Kv1.5 channel): blocking effect on the Kv1.5 channel |
| O=C(NC1CCc2ccccc21)c1cc(S(=O)(=O)NC2CCCCC2)c(F)cc1Cl (centres unmarked) [Example 73] | 6.2 µM |  |
| CCCCN1CCCCC1C(=O)Nc1c(C)cccc1C (centres unmarked) [Bupivacaine] |  | blocking effect on the Kv1.5 channel (in words) (Kv1.5 channel): blocking effect on the Kv1.5 channel |
| Cc1ccc(S(=O)(=O)NCCC(C)C)cc1C(=O)NC1CCc2ccccc21 (centres unmarked) [Example 43] | 5.3 µM |  |
| CC(C)CNS(=O)(=O)c1cc(C(=O)NC2CCc3ccccc32)c(Cl)cc1Cl (centres unmarked) [Example 10] | 4.8 µM |  |
| COc1ccc2c(c1)C(NC(=O)c1ccc(Cl)c(S(=O)(=O)NCCC(C)C)c1)CC2 (centres unmarked) [Example 88] | 8.7 µM |  |
| Cc1ccc(S(=O)(=O)NC2CCCCC2)cc1C(=O)NC1CCc2ccccc21 (centres unmarked) [Example 51] | 7.1 µM |  |
| O=C(NC1CCc2ccccc21)c1cc(S(=O)(=O)Nc2ccccc2)ccc1Cl (centres unmarked) [Example 62] | 6.3 µM |  |
| Cc1cc(S(=O)(=O)NCCC(C)C)cc(C(=O)NC2CCc3ccccc32)c1C (centres unmarked) [Example 60] | 6.9 µM |  |
| C1CCC2(C1)C1CN(CC3CC3)CC2CN(CC2CC2)C1 [Tedisamil] |  | blocking effect on the Kv1.5 channel (in words) (Kv1.5 channel): blocking effect on the Kv1.5 channel |
| CCCCNS(=O)(=O)c1cc(C(=O)NC2CCc3ccccc32)ccc1Cl (centres unmarked) [Example 3] | 7.7 µM |  |

— US6221866A, “Indanyl-substituted benzenecarboxamides, processes for their preparation, their use as a medicament, and pharmaceutical formulations containing them” (priority 1999, dated 2001)
